According to patent US12583858B2 (Genentech, Inc., priority 2015, dated 2026):

Molecular target: T1, TDO2 (Homo sapiens, UniProt P48775)
T1 construct: decreased levels of NFK in SW48 cells (high TDO expressing cells)
Test: TDO2 cell assay (NFK GreenScreen, SW48 cells)
Assay type: cell-based
Settings: SW48 cells (high TDO expressing), 200 uM tryptophan, 24 hours; Table 3; read-out: TDO2 Cell Fluor EC50

T1 sequence (P48775 whole entry): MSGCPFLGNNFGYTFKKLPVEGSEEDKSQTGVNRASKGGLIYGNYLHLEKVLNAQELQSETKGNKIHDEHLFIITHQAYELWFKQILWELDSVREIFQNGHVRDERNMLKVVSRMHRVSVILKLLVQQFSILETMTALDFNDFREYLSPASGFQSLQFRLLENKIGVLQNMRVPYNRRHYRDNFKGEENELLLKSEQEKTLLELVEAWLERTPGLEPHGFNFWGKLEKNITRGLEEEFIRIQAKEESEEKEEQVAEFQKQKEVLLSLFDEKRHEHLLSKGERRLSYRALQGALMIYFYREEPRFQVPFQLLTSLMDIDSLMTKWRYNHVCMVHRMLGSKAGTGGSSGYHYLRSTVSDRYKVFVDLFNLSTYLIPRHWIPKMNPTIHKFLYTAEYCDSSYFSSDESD

Row | Structure (SMILES) | EC50
1 | O=S(=O)(C1CC1)N1CC[C@@H]([C@@H]2c3ccccc3-c3cncn32)[C@H](O)C1 (single isomer, unassigned) [Example 81b] | > 25 µM
2 | CC1(C)OC(C)(C)C(C2c3ccccc3-c3cncn32)C1O (single isomer, unassigned) [Example 84a] | 14 µM
3 | CC1(C)OC(C)(C)C(C2c3ccccc3-c3cncn32)C1O (single isomer, unassigned) [Example 84b] | 0.067 µM
4 | CC1(C)OC(C)(C)C(C2c3ccccc3-c3cncn32)C1O (single isomer, unassigned) [Example 84c] | 13 µM
5 | CC1(C)OC(C)(C)C(C2c3ccccc3-c3cncn32)C1O (single isomer, unassigned) [Example 84d] | 3.6 µM
6 | CC1(C)OC(C)(C)C(C2c3ccccc3-c3cncn32)C1O (single isomer, unassigned) [Example 84e] | > 25 µM
7 | CC1(C)OC(C)(C)C(C2c3ccccc3-c3cncn32)C1O (single isomer, unassigned) [Example 84f] | > 25 µM
8 | CC1(C)OCC(C2c3ccccc3-c3cncn32)C1O (single isomer, unassigned) [Example 85a] | 24 µM
9 | CC1(C)OCC(C2c3ccccc3-c3cncn32)C1O (single isomer, unassigned) [Example 85b] | 0.13 µM
10 | CC1(C)OCC(C2c3ccccc3-c3cncn32)C1O (single isomer, unassigned) [Example 85c] | 11 µM
11 | CC1(C)OCC(C2c3ccccc3-c3cncn32)C1O (single isomer, unassigned) [Example 85d] | 0.66 µM
12 | CC1(C)OCC(C2c3ccccc3-c3cncn32)C1O (single isomer, unassigned) [Example 85e] | > 25 µM
13 | CC1(C)OCC(C2c3ccccc3-c3cncn32)C1O (single isomer, unassigned) [Example 85f] | > 25 µM
14 | CC1(C)OCC(C2c3ccccc3-c3cncn32)C1O (single isomer, unassigned) [Example 85g] | 0.14 µM
15 | CC1(C)OCC(C2c3ccccc3-c3cncn32)C1O (single isomer, unassigned) [Example 85h] | 0.66 µM
16 | OC1CCCOCC1C1c2ccccc2-c2cncn21 (single isomer, unassigned) [Example 86a] | 14 µM
17 | OC1CCCOCC1C1c2ccccc2-c2cncn21 (single isomer, unassigned) [Example 86b] | 0.52 µM
18 | OC1CCCOCC1C1c2ccccc2-c2cncn21 (single isomer, unassigned) [Example 86c] | > 25 µM
19 | OC1CCCOCC1C1c2ccccc2-c2cncn21 (single isomer, unassigned) [Example 86d] | 0.14 µM
20 | OC1CCCOCC1C1c2ccccc2-c2cncn21 (single isomer, unassigned) [Example 86e] | > 25 µM
21 | OC1CCCOCC1C1c2ccccc2-c2cncn21 (single isomer, unassigned) [Example 86f] | 0.15 µM
22 | OC1CCCOCC1C1c2ccccc2-c2cncn21 (single isomer, unassigned) [Example 86g] | 0.84 µM
23 | OC1CC2(COC2)C1C1c2ccccc2-c2cncn21 (single isomer, unassigned) [Example 87a] | 18 µM
24 | OC1CC2(COC2)C1C1c2ccccc2-c2cncn21 (single isomer, unassigned) [Example 87c] | 6 µM
25 | OC1CC2(COC2)C1C1c2ccccc2-c2cncn21 (single isomer, unassigned) [Example 87d] | > 25 µM
26 | OC1CC2(COC2)C1C1c2ccccc2-c2cncn21 (single isomer, unassigned) [Example 87e] | 14 µM

Row | Structure (SMILES) | EC50
27 | OC1CC2(COC2)C1C1c2ccccc2-c2cncn21 (single isomer, unassigned) [Example 87f] | 17 µM
28 | OC1CC2(COC2)C1C1c2ccccc2-c2cncn21 (single isomer, unassigned) [Example 87g] | 0.24 µM
29 | OC1CC2(COC2)C1C1c2ccccc2-c2cncn21 (single isomer, unassigned) [Example 87h] | 11 µM
30 | OC1c2nccn2CCC1C1c2ccccc2-c2cncn21 (single isomer, unassigned) [Example 88a] | > 25 µM
31 | OC1c2nccn2CCC1C1c2ccccc2-c2cncn21 (single isomer, unassigned) [Example 88b] | > 25 µM
32 | OC1c2nccn2CCC1C1c2ccccc2-c2cncn21 (single isomer, unassigned) [Example 88c] | > 25 µM
33 | OC1c2nccn2CCC1C1c2ccccc2-c2cncn21 (single isomer, unassigned) [Example 88d] | 21 µM
34 | OC1c2nccn2CCC1C1c2ccccc2-c2cncn21 (single isomer, unassigned) [Example 88e] | > 25 µM
35 | OC1c2nccn2CCC1C1c2ccccc2-c2cncn21 (single isomer, unassigned) [Example 88f] | 5.8 µM
36 | OC1c2nccn2CCC1C1c2ccccc2-c2cncn21 (single isomer, unassigned) [Example 88g] | 0.73 µM
37 | OC1c2nccn2CCC1C1c2ccccc2-c2cncn21 (single isomer, unassigned) [Example 88h] | > 25 µM
38 | CC(C)S(=O)(=O)N1CCC(C2c3ccccc3-c3cncn32)C(O)C1 (single isomer, unassigned) [Example 89a] | 14 µM
39 | CC(C)S(=O)(=O)N1CCC(C2c3ccccc3-c3cncn32)C(O)C1 (single isomer, unassigned) [Example 89b] | > 25 µM
40 | CC1(C)CCCC(C)(C2c3ccccc3-c3cncn32)C1O (single isomer, unassigned) [Example 90a] | > 25 µM
41 | CC1(C)CCCC(C)(C2c3ccccc3-c3cncn32)C1O (single isomer, unassigned) [Example 90b] | > 25 µM
42 | CC1(C)CCCC(C)(C2c3ccccc3-c3cncn32)C1O (single isomer, unassigned) [Example 90c] | 0.057 µM
43 | CC1(C)CCCC(C)(C2c3ccccc3-c3cncn32)C1O (single isomer, unassigned) [Example 90d] | 9.4 µM
44 | CC1(C)CCCC(C)(C2c3ccccc3-c3cncn32)C1O (single isomer, unassigned) [Example 90f] | 0.41 µM
45 | CS(=O)(=O)c1ccc2c(c1)OCC(C1c3ccccc3-c3cncn31)C2O (single isomer, unassigned) [Example 91a] | 2.8 µM
46 | CS(=O)(=O)c1ccc2c(c1)OCC(C1c3ccccc3-c3cncn31)C2O (single isomer, unassigned) [Example 91b] | > 25 µM
47 | CS(=O)(=O)c1ccc2c(c1)OCC(C1c3ccccc3-c3cncn31)C2O (single isomer, unassigned) [Example 91c] | > 25 µM
48 | CS(=O)(=O)c1ccc2c(c1)OCC(C1c3ccccc3-c3cncn31)C2O (single isomer, unassigned) [Example 91d] | 0.36 µM
49 | CS(=O)(=O)c1ccc2c(c1)OCC(C1c3ccccc3-c3cncn31)C2O (single isomer, unassigned) [Example 91e] | 6.1 µM
50 | CS(=O)(=O)c1ccc2c(c1)OCC(C1c3ccccc3-c3cncn31)C2O (single isomer, unassigned) [Example 91f] | 0.81 µM
51 | CS(=O)(=O)c1ccc2c(c1)OCC(C1c3ccccc3-c3cncn31)C2O (single isomer, unassigned) [Example 91g] | 2.3 µM
